The values that follow come from patent US12577247B2 (BUGWORKS RESEARCH, INC., priority 2021, dated 2026).

Each structure is given as a SMILES string.

Experiment [1] concerns the target T1, A2B receptor (Homo sapiens, UniProt P29275).
T1 sequence (P29275 1-332): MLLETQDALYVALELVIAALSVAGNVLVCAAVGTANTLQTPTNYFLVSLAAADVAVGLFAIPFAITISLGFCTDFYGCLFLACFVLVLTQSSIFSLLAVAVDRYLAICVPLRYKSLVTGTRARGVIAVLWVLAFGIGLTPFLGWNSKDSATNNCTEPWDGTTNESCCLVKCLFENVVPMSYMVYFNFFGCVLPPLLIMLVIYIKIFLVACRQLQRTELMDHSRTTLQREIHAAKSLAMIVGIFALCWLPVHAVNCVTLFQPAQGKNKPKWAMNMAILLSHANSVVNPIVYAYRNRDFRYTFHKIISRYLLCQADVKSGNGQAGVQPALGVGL
The experiment is described as follows: A2bR antagonism IC50, cAMP TR-FRET in HEK-293 cells, high concentration of adenosine (30 μM).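 Note: compounds preincubated 10 min with cells, then adenosine stimulation 30 min at room temperature in buffer with Rolipram 100 µM and EHNA 30 µM, TR-FRET read after 1 h.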 The settings on record: A2BR IC50 (nM) (@30 μM Adenosine), HEK-293 cells expressing A2B receptor; agonist adenosine 30 μM; 2% HSA; inhibition of cAMP. For orientation: Time-resolved FRET reads energy transfer from a long-lived donor to a nearby acceptor.

For experiment [2], the target named is T2, A2A receptor (Homo sapiens, UniProt P29274).
T2 construct: host or cells: HEK-293
The experiment is described as follows: A2aR antagonism IC50, cAMP TR-FRET in HEK-293 cells, high concentration of adenosine (30 μM).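 Note: compounds added 10 min before adenosine, then 30 min stimulation at room temperature in buffer with 100 µM rolipram and 30 µM EHNA, signal read 1 h after detection reagents.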 It counts as cell-based. To be noted: HEK-293 cells expressing A2A receptor; agonist adenosine 30 μM; 2% HSA; inhibition of cAMP; read-out: A2AR IC50 (nM) (@30 μM Adenosine).
Procedure: A Time-Resolved Fluorescence Energy Transfer (TR-FRET) assay was used to show the inhibition of this cAMP production in HEK cells upon treatment with compounds of the Formula I of the present disclosure.
HEK-293 cells expressing A2A receptor (#ES-011-C) or A2B receptor (#ES 013-C) were obtained from PerkinElmer. Cells were maintained in DMEM medium supplemented with 10% FBS and 200 μg/mL of G418 at 37° C. and 5% CO2. The cells were cultured in antibiotic free medium for a period of 16-20 hours prior to the assay. All subsequent steps of the assay are performed at room temperature (22-24° C.). […] About 1500 cells per well were pre-incubated for 10 minutes with the compounds of the present invention before adding the agonist Adenosine at a high concentration (30 μM) for a total stimulation time of 30 minutes. […] The assays were conducted in a stimulation buffer containing 1×DMEM, 5 mM HEPES, 2% Human serum albumin (HSA), 100 μM Rolipram and 30 μM erythro-9-(2-hydroxy-3-nonyl) adenine (EHNA). Serial dilutions of compounds were made in stimulation buffer to achieve a final concentration of high micromolar in a reaction volume of 10 μL. The total reaction volume was 10 μL (5 μL of cells, 2.5 μL of antagonist and 2.5 μL of agonist). […] The stimulation was ended, and the reaction completed by adding 5 μL of 4× Eu-cAMP tracer working solution and 5 μL of 4× ULight-anti-cAMP working solution. The TR FRET signal was measured after 1-hour incubation using a Tecan M1000 or a PerkinElmer Victor Nivo plate reader.

Experiment [3] addresses T1, A2B receptor. As to the kind of experiment: A2bR antagonism IC50, cAMP TR-FRET (Lance Ultra) in HEK-293 cells, NECA as agonist. It counts as cell-based. More on the design: host or cells: HEK-293. To be noted: HEK-293 cells expressing A2B receptor; agonist NECA 30 nM (EC90); inhibition of cAMP.
Source text: (§1) Adenosine A2A receptors and Adenosine A2B receptors induce the production of cAMP when activated/stimulated by an agonist like adenosine or 5′-(N-Ethylcarboxamido) adenosine (NECA). A Time-Resolved Fluorescence Energy Transfer (TR-FRET) assay was used to show the inhibition of this cAMP production in HEK cells upon treatment with compounds of the Formula I of the present disclosure.
(§2) HEK-293 cells expressing A2A receptor (#ES-011-C) or A2B receptor (#ES 013-C) were obtained from PerkinElmer. Cells were maintained in DMEM medium supplemented with 10% FBS and 200 μg/mL of G418 at 37° C. and 5% CO2. The cells were cultured in antibiotic free medium for a period of 16-20 hours prior to the assay. All subsequent steps of the assay are performed at room temperature (22-24° C.). The cells were harvested at about 80% confluency by gentle flushing with PBS, recovered by centrifugation and resuspended in stimulation buffer at the concentration of 5.0×10^6 cells/mL.
(§3) The assays were conducted in a stimulation buffer containing 1×DMEM, 5 mM HEPES, 0.1% BSA stabilizer and 20-30 μM Rolipram. Serial dilutions of compounds were made in stimulation buffer to achieve a final concentration of high micromolar (10 μM to 0.08 nM) in the reaction volume of 10 μL. The total reaction volume was 10 μL (5 μL of cells, 2.5 μL of antagonist and 2.5 μL of agonist). The stimulation was ended, and the reaction completed by adding 5 μL of 4× Eu-cAMP tracer working solution and 5 μL of 4× ULight-anti-cAMP working solution. The TR-FRET signal was measured after 1-hour incubation using a Tecan M1000 reader.
The target in experiment [4] is T2, A2A receptor. As to the kind of experiment: A2aR antagonism IC50, cAMP TR-FRET (Lance Ultra) in HEK-293 cells, NECA as agonist.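 Note: compounds tested from 10 µM down to 0.08 nM in buffer with Rolipram at room temperature, TR-FRET cAMP signal read 1 h after adding Eu-cAMP tracer and ULight anti-cAMP.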 It counts as cell-based. The settings on record: A2AR IC50 (nM) (@5 nM NECA), HEK-293 cells expressing A2A receptor; agonist NECA 5 nM (EC90); inhibition of cAMP.
Source text: as §1, §2, §3

T2 sequence (P29274 whole entry): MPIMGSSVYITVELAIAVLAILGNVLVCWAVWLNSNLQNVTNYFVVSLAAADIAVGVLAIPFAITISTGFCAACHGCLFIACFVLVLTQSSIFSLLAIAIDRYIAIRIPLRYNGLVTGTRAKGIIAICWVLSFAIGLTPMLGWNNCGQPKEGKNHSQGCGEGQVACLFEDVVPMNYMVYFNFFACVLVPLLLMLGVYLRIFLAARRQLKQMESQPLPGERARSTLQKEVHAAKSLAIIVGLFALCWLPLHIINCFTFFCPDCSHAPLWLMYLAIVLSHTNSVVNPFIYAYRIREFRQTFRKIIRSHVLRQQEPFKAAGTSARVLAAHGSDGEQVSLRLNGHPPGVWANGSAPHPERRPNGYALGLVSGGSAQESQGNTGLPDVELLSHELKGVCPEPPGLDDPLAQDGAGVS

Consider `Cc1nn2c(N)c(C#N)c(NCCc3cccc(C4CC4CO)n3)nc2c1C` (centres unmarked) [Example 51, 7-amino-5-((2-(6-(2-(hydroxymethyl)cyclopropyl)pyridin-2-yl)ethyl)amino)-2,3-dimethylpyrazolo[1,5-a]pyrimidine-6-carbonitrile], for which the IC50 (in general, the concentration that gives 50% inhibition) at A2B receptor [1] was 1290 nM; on A2A receptor [2] it was 348 nM; at A2B receptor [3], 2.1 nM; on A2A receptor [4] it was 0.17 nM.
The like results for `CCc1c(C(F)F)nn2c(N)c(C#N)c(NCCc3ccn(C4(CO)CC4)n3)nc12` [Example 58, 7-amino-2-(difluoromethyl)-3-ethyl-5-((2-(1-(1-(hydroxymethyl)cyclopropyl)-1H-pyrazol-3-yl)ethyl)amino) pyrazolo[1,5-a]pyrimidine-6-carbonitrile] were, in that order, 12200 nM, 756 nM, 4.7 nM and 0.22 nM.
The corresponding values for `Cc1nn2c(N)c(C#N)c(NCCc3cc(C)n(C4(CO)CC4)n3)nc2c1C` [Example 86, 7-amino-5-((2-(1-(1-(hydroxymethyl)cyclopropyl)-5-methyl-1H-pyrazol-3-yl)ethyl)amino)-2,3-dimethylpyrazolo[1,5-a]pyrimidine-6-carbonitrile] are 2550 nM, 43 nM, 19 nM and 0.2 nM.
`Cc1nn2c(N)c(C#N)c(NCCc3ccn(C4(CO)CC4)n3)nc2c1Cl` [Example 37, 7-amino-3-chloro-5-((2-(1-(1-(hydroxymethyl)cyclopropyl)-1H-pyrazol-3-yl)ethyl)amino)-2-methylpyrazolo[1,5-a]pyrimidine-6-carbonitrile]: the IC50 worked out at 1770 nM at A2B receptor [1], 78 nM at A2A receptor [2], 7 nM at A2B receptor [3] and 0.12 nM at A2A receptor [4].
The corresponding values for `CCc1c(C)nn2c(N)c(C#N)c(NCCc3cccc(CO)n3)nc12` [Example 45, 7-amino-3-ethyl-5-((2-(6-(hydroxymethyl)pyridin-2-yl)ethyl)amino)-2-methylpyrazolo[1,5-a] pyrimidine-6-carbonitrile] are 650 nM, 935 nM, 2.9 nM and 0.58 nM.
